Laboratory results published in paper PMC10714743, “TrCla4 promotes actin polymerization at the hyphal tip and mycelial growth in Trichophyton rubrum” (Microbiology Spectrum, 2023).

How the values were obtained:
TrCla4 [1] = biological target: T1, TrCla4 (Trichophyton rubrum, UniProt F2SMN8); assay: pull-down of purified GTPγS-TrRac by Tf-TrCla4 with IPA-3; also Kinase-Glo assay of immunoprecipitated 3xHA-TrCla4; format: biochemical
T1 construct: gene TERG_04196; His-, Tf- and Flag-tagged TrCla4 (E. coli BL21 lysate, Ni NTA pull-down); also immunoprecipitated 3xHA-TrCla4

TrCla4 [2] = biological target: T2, TrCla4 (Trichophyton rubrum, UniProt F2SMN8); assay: Kinase-Glo ATP consumption assay of immunoprecipitated 3xHA-TrCla4 with recombinant TrRac; format: biochemical
T2 construct: gene TERG_04196; 3xHA-TrCla4 immunoprecipitated from T. rubrum; with TrRac
T2 sequence (F2SMN8 1-888): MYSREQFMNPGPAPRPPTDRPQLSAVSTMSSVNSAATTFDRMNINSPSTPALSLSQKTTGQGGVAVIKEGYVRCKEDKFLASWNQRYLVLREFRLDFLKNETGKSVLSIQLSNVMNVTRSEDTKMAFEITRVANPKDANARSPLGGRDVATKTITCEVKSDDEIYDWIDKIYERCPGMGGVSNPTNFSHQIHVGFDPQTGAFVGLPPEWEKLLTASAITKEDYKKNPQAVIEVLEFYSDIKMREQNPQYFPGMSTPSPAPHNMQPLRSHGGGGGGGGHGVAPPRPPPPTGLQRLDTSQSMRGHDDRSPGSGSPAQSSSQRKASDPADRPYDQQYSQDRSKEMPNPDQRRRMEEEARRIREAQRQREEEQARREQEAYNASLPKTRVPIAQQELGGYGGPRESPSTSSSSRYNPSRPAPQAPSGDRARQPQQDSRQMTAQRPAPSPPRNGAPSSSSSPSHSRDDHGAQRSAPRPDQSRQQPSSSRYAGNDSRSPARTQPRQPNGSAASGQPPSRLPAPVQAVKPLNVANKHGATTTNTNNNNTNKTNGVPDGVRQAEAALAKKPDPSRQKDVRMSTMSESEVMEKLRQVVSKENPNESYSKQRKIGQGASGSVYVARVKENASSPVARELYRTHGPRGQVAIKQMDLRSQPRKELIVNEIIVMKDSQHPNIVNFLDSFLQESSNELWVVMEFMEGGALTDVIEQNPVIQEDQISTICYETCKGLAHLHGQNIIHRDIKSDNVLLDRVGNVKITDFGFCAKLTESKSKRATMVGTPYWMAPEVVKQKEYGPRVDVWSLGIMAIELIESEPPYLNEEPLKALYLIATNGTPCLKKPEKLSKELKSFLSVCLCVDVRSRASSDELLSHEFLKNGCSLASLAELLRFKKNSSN

| Compound | IC50 (TrCla4 [1]) [µM] | Kinase-Glo ATP consumption assay of immunoprecipitated 3xHA-TrCla4 with recombin (TrCla4 [2]) |
| --- | --- | --- |
| Oc1ccc2ccccc2c1SSc1c(O)ccc2ccccc12 [IPA-3] | 2.3 | – |
| CCn1c(=O)c(-c2ccc(Cl)cc2Cl)cc2cnc(Nc3ccc(N4CCNCC4)c(F)c3)nc21 [FRAX486] | – | Both FRAX486 and IPA-3 inhibited the TrRac-dependent ATPase activity of 3xHA-TrCla4 (Fig. 5D). |
